Data from US9999621B2, “Medical use of artemisinin compounds and gephyrin agonists” (CeMM-Forschungszentrum für Molekulare Medizin GmbH, priority 2014, dated 2018).
Where two headings read alike, the source gives them in different places. Values belong to the compound of their own block, whether it stands above or below them.

Tests used:
alphaTC1 cells = experiment: Insulin expression in alpha cell line, immunofluorescence; format: cell-based, mouse; conditions: for insulin expression in alpha cells: alphaTC1 cells, immunofluorescence
gephyrin [1] = molecular target: T1, gephyrin (Mus musculus, UniProt Q8BUV3); experiment: Chemical proteomics pull-down with artesunate matrix, competition by free artemether; format: binding; design: using 10 mg total cell lysate as protein input per replicate; endogenous in cells; host or cells: cell lysate; conditions: artesunate coupled to solid support, with and without competing free artemether
T1 sequence (Q8BUV3 1-769): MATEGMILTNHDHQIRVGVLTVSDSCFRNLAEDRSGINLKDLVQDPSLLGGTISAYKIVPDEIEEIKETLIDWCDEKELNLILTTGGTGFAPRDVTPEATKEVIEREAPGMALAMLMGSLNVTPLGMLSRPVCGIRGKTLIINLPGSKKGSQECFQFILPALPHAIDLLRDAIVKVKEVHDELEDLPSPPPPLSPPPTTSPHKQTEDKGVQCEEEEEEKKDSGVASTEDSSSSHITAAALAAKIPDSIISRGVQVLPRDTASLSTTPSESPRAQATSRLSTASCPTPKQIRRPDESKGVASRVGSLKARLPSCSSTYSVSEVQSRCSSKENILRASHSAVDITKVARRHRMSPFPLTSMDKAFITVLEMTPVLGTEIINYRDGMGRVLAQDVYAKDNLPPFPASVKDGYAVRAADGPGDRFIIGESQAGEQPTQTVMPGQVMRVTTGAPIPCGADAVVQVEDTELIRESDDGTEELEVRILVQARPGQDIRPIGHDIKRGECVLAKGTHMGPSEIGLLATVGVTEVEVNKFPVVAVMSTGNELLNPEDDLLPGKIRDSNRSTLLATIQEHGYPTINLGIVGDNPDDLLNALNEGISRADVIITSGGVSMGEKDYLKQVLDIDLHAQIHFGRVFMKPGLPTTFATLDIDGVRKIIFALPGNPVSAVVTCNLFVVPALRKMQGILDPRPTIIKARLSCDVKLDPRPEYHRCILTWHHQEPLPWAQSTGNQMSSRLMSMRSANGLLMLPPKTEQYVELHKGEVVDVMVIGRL
Method: (§1) Drug-affinity matrices were prepared essentially as described previously (Huber et al, 2014). Briefly, ethylenediamine (2.7 μL, 40 μmol), ethanolamine (9.7 μL, 160 μmol), and triethylamine (15 μL, 108 μmol) were added to 500 μL NHS-activated Sepharose 4 Fast Flow beads (GE Healthcare Bio-Sciences AB, Uppsala, Sweden) and the reaction was put on a rotary shaker for 24 h. Beads were washed and resuspended in DMSO and NHS-activated artesunate (100 μL, 1.00 μmol) was added to the suspension, and the mixture was put on a rotary shaker for 24 h. Unreacted beads were blocked by addition of NHS-acetate (10 μmol) and triethylamine (25 μL, 180 μmol), followed by agitation on a rotary shaker for 24 h. After washing with DMSO and lysis buffer, beads were incubated with cell lysates.
(§2) Affinity chromatography and elution were performed in duplicate as reported previously (Huber et al, 2014), using 10 mg total cell lysate as protein input per replicate. […]
(§3) The initial peptide identifications were used to deduce independent linear transformations for precursor and fragment masses that would minimize the mean square deviation of measured masses from theoretical. […] A false discovery rate (FDR) of <1% for protein identifications and <0.1% for peptides (including the ones exported with lower scores) was determined by applying the same procedure against a database of reversed protein sequences. […]

CUL3 = experiment: as above; format: binding, mouse; conditions: artesunate coupled to solid support, with and without competing free artemether
Method: as §1, §2, §3

[2] = test system: Min6 cells overexpressing ARX; experiment: High-throughput screen for functional repressors of ARX, insulin immunofluorescence; format: cell-based, mouse
Method: Mouse pancreatic cell lines αTC1 (provided by Novo Nordisk) and βTC3 (provided by Novo Nordisk) were grown in low-glucose DMEM supplemented by 10% FBS, 50 U/mL penicillin and 50 μg/mL streptomycin. Mouse pancreatic cell lines Min6 (provided by Novo Nordisk) with Doxycycline inducible construct was grown in high-glucose DMEM supplemented by 15% Tet System Approved FBS (Clonetech 631106), 71 uM 2-mercaptoethanol, 50 U/mL penicillin and 50 ug/mL streptomycin. The cell culture for human islets followed established protocols (Walpita et al., 2012).
Compounds (50 nL) were transferred to black optical suitable 384-well plate (Corning 3712) from DMSO stock plates using acoustic transfer (Labcyte Inc.). Min6 cells (3000 cells per well) were plated in 50 ul media on top of the compounds. Three days after treatment, cells were fixed in 3.7% formaldehyde for ten minutes at room temperature. Following PBS washing, cells were fixed with cold pure methanol at −20° C. for 10 minutes, permeabilized by 1% Triton X-100 in PBS for 30 minutes and blocked by 3% BSA in PBS for 30 minutes. Twenty microliters of primary anti-insulin antibody, diluted in 1:2000 in 1.5% BSA, was added per well and incubated in 4° C. overnight. […]
Images were taken by an automated microscope (Perkin Elmer Operetta) using a 20× objective. […] Images were analyzed by the Harmony (Perkin Elmer) software. […]

Btbd9 = molecular target: T2, Btbd9 (Mus musculus, UniProt Q8C726); experiment: Chemical proteomics pull-down with artesunate matrix, competition by free artemether; format: binding; conditions: artesunate coupled to solid support, with and without competing free artemether
T2 construct: using 10 mg total cell lysate as protein input per replicate; endogenous in cells; host or cells: cell lysate
T2 sequence (Q8C726 1-612): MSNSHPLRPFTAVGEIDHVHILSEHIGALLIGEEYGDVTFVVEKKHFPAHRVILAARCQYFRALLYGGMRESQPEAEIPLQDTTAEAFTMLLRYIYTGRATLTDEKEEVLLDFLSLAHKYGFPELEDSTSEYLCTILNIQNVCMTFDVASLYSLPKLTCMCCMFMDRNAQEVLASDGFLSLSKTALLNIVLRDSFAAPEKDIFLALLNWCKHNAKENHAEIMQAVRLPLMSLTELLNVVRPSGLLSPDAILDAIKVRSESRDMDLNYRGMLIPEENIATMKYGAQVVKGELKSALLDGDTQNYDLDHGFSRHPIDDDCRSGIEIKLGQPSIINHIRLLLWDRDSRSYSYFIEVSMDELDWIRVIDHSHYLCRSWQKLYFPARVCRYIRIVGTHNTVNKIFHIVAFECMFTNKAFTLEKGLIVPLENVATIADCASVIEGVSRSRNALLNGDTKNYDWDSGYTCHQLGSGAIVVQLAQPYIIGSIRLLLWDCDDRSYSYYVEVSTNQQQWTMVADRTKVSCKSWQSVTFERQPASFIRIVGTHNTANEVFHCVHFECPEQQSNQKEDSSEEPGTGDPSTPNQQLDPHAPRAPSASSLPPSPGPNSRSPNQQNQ
Method: as §1, §2, §3

aTC1 cells = experiment: GABAR antagonists combined with artemether, insulin immunofluorescence; format: cell-based, mouse
gephyrin [3] = molecular target: T1, gephyrin; experiment: Gephyrin protein levels in alpha cells, Western blot and immunofluorescence; format: cell-based; design: endogenous in cells; host or cells: aTC1 mouse pancreatic alpha cell line; conditions: alpha cell line
Method: Whole cell extracts were generated by lysing cells in NP-40 buffer containing 150 mM sodium chloride, 1.0% NP-40 and 50 mM Tris, pH 8.0 supplemented by Protease Inhibitor Cocktail (Roche). The whole-cell lysate (30 μg) was loaded onto a SDSpolyacrylamide gel for electrophoresis at 30 mA per gel, and then transferred by electrophoresis to a nitrocellulose membrane (GE Healthcare Life Science). All the blots were incubated with the corresponding primary antibodies diluted in 1:1000 in 5% milk at 4° C. overnight and with HRP-labeled secondary antibodies (diluted 1:20000) for 1 h. The signals were detected using ECL Prime Western blotting Detection Reagent (Amersham).

SMILES: Cc1ccsc1C(=CCCN1CCC[C@@H](C(=O)O)C1)c1sccc1C [thiagabine]
insulin expression in alpha cells (alphaTC1 cells): increased the insulin expression | insulin expression in alpha cells (alphaTC1 cells; listed as Thiagabine): increases insulin production

specific interactor identified by mass spectrometry (gephyrin [1]): top specific interactor | enrichment in pull-down (Btbd9): strong enrichment
SMILES: C[C@H]1[C@H](OC(=O)CCC(=O)O)O[C@@H]2O[C@@]3(C)CC[C@H]4[C@H](C)CC[C@@H]1[C@@]24OO3 [artesunate]
enrichment in pull-down (CUL3): strong enrichment | insulin expression in alpha cells (alphaTC1 cells): active | insulin levels in the presence of ARX (ARX overexpression phenotype) ([2]; Min6 cells induced to overexpress ARX, 72 hours, immunofluorescence): active

EC50 (alphaTC1 cells; Mus musculus, 72 h, alpha cells, inducing insulin expression, immunofluorescence (FIG. 3d), read-out: half maximum effective concentration): < 10 µM | EC50 ([2]; Mus musculus, Min6 cells overexpressing ARX, dose response, immunofluorescence (FIG. 3c), read-out: half maximum effective concentration): < 1 µM
SMILES: CO[C@H]1O[C@@H]2O[C@@]3(C)CC[C@H]4[C@H](C)CC[C@@H]([C@H]1C)[C@@]24OO3 [artemether]

SMILES: COc1ccc(-c2ccc(=N)n(CCCC(=O)O)n2)cc1 [gabazine]
effect of GABAR antagonist on the effects of artemether (aTC1 cells): inhibited the effects of artemether | effect of GABAR antagonist on the effects of artemether (aTC1 cells; listed as Gabazine): inhibits the effects of Artemether

SMILES: CCO[C@H]1O[C@@H]2O[C@@]3(C)CC[C@H]4[C@H](C)CC[C@@H]([C@H]1C)[C@@]24O3 [deoxyarteether]
insulin expression in alpha cells (alphaTC1 cells): inactive

SMILES: COC1OC2OC3(C)CCC4C(C)CCC(C1C)C24O3 (centres unmarked) [Deoxyartemether]
insulin expression in alpha cells (alphaTC1 cells): no effects

gephyrin protein levels (gephyrin [3]): dose-dependent increase
SMILES: C[C@@H]1CC[C@H]2[C@@H](C)C(=O)O[C@@H]3O[C@@]4(C)CC[C@@H]1[C@]32OO4 [artemisinin, (3R,5aS,6R,8aS,9R,12S,12aR)-octahydro-3,6,9-trimethyl-3,12-epoxy-12H-pyrano[4,3-j]-1,2-benzodioxepin-10(3H)-one]
